We go through 3 molecules from ChEMBL document CHEMBL1134225, “Potent synthetic inhibitors of tyrosyl tRNA synthetase derived from C-pyranosyl analogues of SB-219383” (Bioorg Med Chem Lett, 2001).

The structures appear in SMILES notation.

Assay [1] is described as follows: Inhibitory activity (3 uM) against Staphylococcus aureus tyrosyl tRNA synthetase (YRS) using aminoacylation assay.
The nature of assay [2]: Inhibitory activity against Staphylococcus aureus tyrosyl tRNA synthetase (YRS) using aminoacylation assay; NI = No inhibition.
A short description of assay [3]: Inhibitory activity against Staphylococcus aureus tyrosyl tRNA synthetase (YRS) using aminoacylation assay.

In the case of `N[C@@H](Cc1ccc(O)cc1)C(=O)N[C@H](C(=O)O)[C@@H]1OC[C@H](O)[C@@H](O)[C@H]1O`, in assay [1], the inhibition (usually the share of the control response that was lost under treatment) stood at 71%.

With `N[C@@H](Cc1ccc(O)cc1)C(=O)NC(C(=O)O)[C@@H]1O[C@H](CO)[C@@H](O)[C@H](O)[C@H]1O` (stereo partly drawn), the IC50 (in general, the concentration that inhibits the measured activity by half) in assay [2] is “Not Active”.

The molecule `N[C@@H](Cc1ccc(O)cc1)C(=O)N[C@H](C(=O)O)[C@@H]1OC[C@H](O)[C@H](O)[C@H]1O` returned an IC50 in assay [3] of 100 nM.
